For assay [1], the system named is CT26 cells. Description: Tumor rechallenge test, CT26 rechallenge. Format: in vivo, Balb/c mice. To be noted: Table 9, CT26 rechallenge, GNTbm-38-K30 20 mg/kg, Regorafenib 30 mg/kg, Cbo-23 30 mg/kg. Here is the method:
(§1) Mice evaluated as CR/PR can enter the rechallenge study. All mice with PR/CR response went through rechallenges with CT26 cells on the contralateral side. The first rechallenge was performed after second assessment with a tumor dose of 1×10^6 cells per mouse. After 7 days of growth, CT26 and LLC1 tumor sizes were used as the baseline. Tumor growth was monitored for a duration of 11 days, and on the 11th day, a tumor size assessment was conducted relative to the baseline. If both of the following criteria are met, the response will be considered as relapse: first, the tumor size was over 1.5 folds when compared to that of baseline; second, the tumor volume was over 150 mm^3.
(§2) If both of the following criteria are met, the response will be considered as relapse: first, the tumor size over 1.5 folds when compared to that of baseline; second, the tumor volume at day 67 was over 150 mm^3.
(§3) If both of the following criteria are met, the response will be considered as relapse: first, the tumor size was over 1.5 folds when compared to that of baseline; second, the tumor volume at day 56 was over 150 mm^3.

In assay [2] the test system is LLC1. Description: Tumor rechallenge test, LLC1 rechallenge. Format: in vivo. To be noted: Table 9, LLC1 rechallenge, GNTbm-38-K30 20 mg/kg, Regorafenib 30 mg/kg, Cbo-23 30 mg/kg. Here is the method:
as §1, §2, §3

Molecules are shown by their SMILES. Values joined by “and” are separate entries in the source; they are usually repeats but may differ in a detail not shown here. Equal entries are not always repeated.

Turning to `COc1cc2nccc(Oc3ccc(NC(=O)C4(C(=O)Nc5ccc(F)cc5)CC4)cc3F)c2cc1Oc1ccc(N)cc1F` [Cbo-23], the “Day 56 Fold change” value in assay [1] (individual mice, vs Day 45) is 2.6 and 0; in assay [2] (individual mice, vs Day 45) it was 2.5 and 1.0. Also, the “Day 45 mm^3 (baseline tumor size)” value was 119.17 mm^3 and 60.82 mm^3 in assay [1] (individual mice); 163.76 mm^3 and 173.53 mm^3 in assay [2] (individual mice). For the same compound, the “Day 56 mm^3” value was 309.20 mm^3 and 0 mm^3 in assay [1] (individual mice); 403.54 mm^3 and 169.80 mm^3 in assay [2] (individual mice). For the same compound, the Score entry in assay [1] (individual mice) is listed as “+ (If both of the following criteria are met, the response will be considered as relapse: first, the tumor size was over 1.5 folds when compared to that of baseline; second, the tumor volume at day 56 was over 150 mm^3.)”; in assay [2] (individual mice) it was “+ (If both of the following criteria are met, the response will be considered as relapse: first, the tumor size was over 1.5 folds when compared to that of baseline; second, the tumor volume at day 56 was over 150 mm^3.)”. In addition, the “Immunity Percentage” value in assay [1] and in assay [2] was 50% (1/2) throughout.

The record behind these values is patent publication US20250120967A1, “TYROSINE KINASES INHIBITORS AND USES THEREOF” (GREAT NOVEL THERAPEUTICS BIOTECH & MEDICALS CORPORATION, priority 2023, published 2025).
